Results published in patent publication US7491707B1, “Synthetic lipid-a-analogs and uses thereof” (Biomira, Inc., priority 1999, dated 2009).
Entries after “also recorded” stand apart in the source; their conditions may differ.

Columns and labels:
[1] = test system: T-cell; assay: T-cell proliferation (3H thymidine incorporation) of lymph node lymphocytes from mice immunized with MUC1-based liposomal vaccine adjuvanted with Lipid-A analog; type: in vivo, C57-Black mice; details: for T-cell-Proliferation (CPM): s.c. liposomal vaccine 40 μg BP1-148 + 20 μg Lipid-A analog per dose, nine days after injection, boosting antigen BP1-151; for T-cell blastogenesis: in words, liposomal vaccine formulations in mice, FIG. 31-FIG. 33
Protocol: (§1) Typically, the liposomal formulation was composed of 400 μg of MUC1-based lipopeptide BP1-148, H2N-[…](Pal)G-OH, 200 μg of Lipid-A analog, 6.94 mg of cholesterol, 1.46 mg of dimyristoyl phosphatidylglycerol ([…]) and 11.62 mg of dipalmitoyl phosphatidylcholine (DPPC) per 1 ml of saline (0.9% NaCl solution).
(§2) The liposomal constructs were formulated by first dissolving the phospholipids, cholesterol and Lipid A analog in tert-butanol at about 53° C. Lipopeptide and water (5%, v/v) were then added to the tert-butanol solution. The resulting clear 95% tert-butanol solution was injected into about 4 volumes of rapidly stirred water at about 50° C., using a glass syringe with an 18-gauge needle. The small unilamellar vesicles (SUV) formed in this process were cooled, sterilized by filtration through a 0.22 μm membrane filter, filled into vials and lyophilized. The dry powder was re-hydrated with sterile saline before injection, resulting in the formation of multilamellar large vesicles (MLV). The liposomes formed are used to immunize mice.
(§3) Groups of C57-Black mice were immunized subcutaneously with the liposomal vaccine containing 40 μg of MUC1-based lipopeptide BP1-148 (FIG. 34), which has the peptide sequence of H2N-[…](Pal) G-OH, and 20 μg of Lipid-A analog per dose. Nine days after vaccine injection mice were sacrificed and lymphocytes were taken from the draining lymph nodes (local response) or from the spleens (systemic response) to determine the immune response in each group. The lymphocytes taken from immunized mice were incubated in in vitro cultures in the presence of MUC1-based boosting antigen BP1-151, which has the peptide sequence H2N-[…]-OH.
T-cell proliferation was evaluated using a standard ^3H thymidine incorporation assay. Briefly, nylon wool passed inguinal lymph node lymphocytes from each mouse were added to a culture containing 106 native mitomycin C treated syngeneic splenocytes, which serves as antigen presenting cells (APCs). To each well 20 μg of MUC1-based boosting peptide BP1-151, H2N-[…]-OH (single letter amino acid code, Table 8), was added for positive control; and cultures containing no antigen or peptide BP1-72, which has the peptide sequence H2N-[…]-OH, were used as negative control. The culture was incubated for 72 h in a total volume of 250 μl well, followed by adding 1 μCi of ^3H-thymidine in a volume of 50 μl. The plates were incubated for an additional 18-20 h. Cells were harvested and [^3H]dTh incorporation was measured by liquid scintillation counter. T-cell proliferation results corresponding to various liposomal vaccines adjuvanted, with different Lipid-A analogs are summarized in Tables 1-Table 3 and FIG. 31-FIG. 33.

[2] = test system: Interferon-gamma (IFN-γ); assay: Interferon-gamma (IFN-γ) production in cell culture supernatants by ELISA, lymphocytes of mice immunized with adjuvanted MUC1 liposomal vaccine; type: in vivo, C57-Black mice; details: for Interferon-gamma (IFN-γ, pg/ml): s.c. liposomal vaccine 40 μg BP1-148 + 20 μg Lipid-A analog per dose, nine days after injection; for interferon-gamma production: in words, liposomal vaccine formulations in mice, FIG. 31-FIG. 33
Protocol: as §1, §2, §3
Interferon-gamma (IFN-γ) levels were determined in the cell culture supernatants using enzyme-linked immunoabsorbent assay (ELISA). 96-Well plates were coated with 50 μl of catcher Mabs in 50 μl of R4.6AZ at 37° C. for 30 min. The plates were then washed and incubated with test samples for 45 min. After two washes the second biotinylated antibody, XMG1.2 was added. After washing, peroxidase-conjugated streptavidin was added and incubated again for 30 min. Finally, 100 μl of horseradish peroxidase (HRPO) substrate solution was added. The optical density was measured with a Thermomax ELISA reader at 405 nm wavelength in kinetic mode for 10 min. The interferon-gamma (IFN-γ) levels corresponding to various Lipid-A analogs are shown in Table 1-Table 3 and FIG. 31-FIG. 33.

[3] = Solubility of Lipid-A analogs for incorporation into liposomes; type: physicochemical; details: in words; given as cause of poor incorporation into liposomes
[4] = literature bioassays; cited from earlier work
[5] = test system: C57-Black mice; assay: Lethal toxicity of Lipid-A analogs injected i.p. followed by Actinomycin D; type: in vivo; details: for No. Survived/No. Tested (+24 h): Actinomycin D +
Protocol: Synthetic Lipid-A analog 86 and the Natural Lipid-A (see Example 95 for more detail) were tested for their lethal toxicity. Test methods and results are summarized below (Table 4) • a) Preparation of Lipid-A analog solution: 1 mg of Lipid-A analog was dissolved in 1 ml of 20% DMSO and diluted with saline to obtain 50 μg, 10 μg and 2 μg doses in 0.5 ml. • b) Preparation of Actinomycin D: 5 mg of Actinomycin D was dissolved in 1 ml of ethanol and diluted with saline to obtain a dose at 550 μg/kg in 0.5 ml. • c) Procedure: Various doses of Lipid-A analogs or solvent as control were injected intraperitoneally (i.p.) into C57-Black mice. Twenty minutes later all groups of mice were injected with 500 μl of Actinomycin D. Mice were then observed for mortality or any other symptoms of toxicity.

[6] = test system: immune response to MUC1-based lipopeptide BP1-148; assay: Adjuvanticity of Lipid-A analogs in liposomal vaccine with MUC1 lipopeptide BP1-148 (T-cell blastogenesis and IFN-γ production); type: in vivo, mice; details: in words
Source text: Liposome formulations have been used to evaluate the adjuvant properties of various synthetic Lipid-A structures and the immune responses to a synthetic lipopeptide antigen BP-148, H2N-[…](Pal)G-OH (FIG. 34), a modified 25-amino-acid sequence derived from tumor-associated MUC1 mucin. The commercially available Lipid-A product, which is currently under clinical evaluation as an adjuvant for vaccine programs, was used for comparison. The natural Lipid-A product, purchased from AVANTI, contained a mixture of Lipid-A analogs extracted from Salmonella bacterial cell wall and is designated as Natural Lipid-A in this invention.
Thus, the liposomal formulations containing the synthetic lipopeptide antigen, BP1-148, and Lipid-A analogs 33, 48, 54, 58, 70, 77, 86, 94, 102, 104 or Natural Lipid-A, were used to immunize mice to measure their immune response in terms of T-cell blastogenesis and interferon-gamma (IFN-γ) production. The compounds were tested in three groups at different time and their preliminary results are shown separately in FIGS. 31-33. As the variations are attributed to different factors such as animal groups and experimental factors, the data from different groups will not be compared.
as §3

Molecule: CCCCCCCCCCCCCC(=O)N[C@@H](CC(=O)N[C@H]1[C@H](OC[C@H]2OC(O)[C@H](NC(=O)C[C@@H](CCCCCCCCCCC)OC(=O)CCCCCCCCCCCCC)[C@@H](OC(=O)C[C@H](O)CCCCCCCCCCC)[C@@H]2O)O[C@H](CO)[C@@H](OP(=O)(O)O)[C@@H]1OC(=O)C[C@@H](CCCCCCCCCCC)OC(=O)CCCCCCCCCCCCC)C(=O)NCCCCCCCCC (stereo partly drawn) [Compound 77, 2-Deoxy-6-O-{2-deoxy-2-[(3S)-3-tetradecanamido-4-nonylamino-4-oxo-butanamido]-4-O-phosphono-3-O-[(3R)-3-tetradecanoyloxytetradecanoyl]-β-D-glucopyranosyl}-3-O-[(3R)-3-hydroxytetradecanoyl]-2-[(3R)-3-tetradecanoyloxytetradecanamido]-α/β-D-glucopyranose]
- T-cell-Proliferation (CPM) ([1]; Table 2, second test group): 2565 CPM
- T-cell blastogenesis [1]: inactive
- Interferon-gamma (IFN-γ, pg/ml) ([2]; Table 2, second test group): 0 pg/mL
- interferon-gamma production [2]: inactive
- solubility [3]: poor solubility

Molecule: monophosphoryl Lipid-A
- potency on a molar basis in eliciting toxic and pyrogenic responses, compared to diphosphoryl Lipid-A [4]: 1000 times less potent

Molecule: CCCCCCCCCCCCCC(=O)N[C@@H](CC(=O)N[C@H]1C(O)O[C@H](CO)[C@@H](OP(=O)(O)O)[C@@H]1OC(=O)CCCCCCCCCCCCC)C(=O)NCCCCCCCCC (stereo partly drawn) [Compound 33, 2-Deoxy-4-O-phosphono-2-[(3S)-3-tetradecanamido-4-nonylamino-4-oxo-butanamido]-3-O-tetradecanoyl-α/β-D-glucopyranose]
- T-cell-Proliferation (CPM) ([1]; Table 1, first test group): 822 CPM
- T-cell blastogenesis [1]: inactive
- Interferon-gamma (IFN-γ, pg/ml) ([2]; Table 1, first test group): 0 pg/mL
- interferon-gamma production [2]: inactive
- solubility [3]: poor solubility

Molecule: CCCCCCCCCCCCCC(=O)N[C@@H](CC(=O)N[C@H]1[C@H](OC[C@H]2OC(O)[C@H](NC(=O)C[C@@H](CCCCCCCCCCC)OC(=O)CCCCCCCCCCCCC)[C@@H](O)[C@@H]2O)O[C@H](CO)[C@@H](OP(=O)(O)O)[C@@H]1OC(=O)C[C@@H](CCCCCCCCCCC)OC(=O)CCCCCCCCCCCCC)C(=O)NCCCCCCCCC (stereo partly drawn) [Compound 58, 2-Deoxy-6-O-{2-deoxy-2-[(3S)-3-tetradecanamido-4-nonylamino-4-oxo-butanamido]-4-O-phosphono-3-O-[(3R)-3-tetradecanoyloxytetradecanoyl]-β-D-glucopyranosyl}-2-[(3R)-3-tetradecanoyloxytetradecanamido]-α/β-D-glucopyranose]
- T-cell-Proliferation (CPM) ([1]; Table 1, first test group): 686 CPM
- T-cell blastogenesis [1]: inactive
- Interferon-gamma (IFN-γ, pg/ml) ([2]; Table 1, first test group): 0 pg/mL
- interferon-gamma production [2]: inactive
- solubility [3]: poor solubility

Molecule: CCCCCCCCCCCCCC(=O)O[C@H](CCCCCCCCCCC)CC(=O)N[C@H]1[C@H](OC[C@H]2OC(O)[C@H](NC(=O)C[C@@H](CCCCCCCCCCC)OC(=O)CCCCCCCCCCCCC)[C@@H](OC(=O)C[C@H](O)CCCCCCCCCCC)[C@@H]2O)O[C@H](CO)[C@@H](OP(=O)(O)O)[C@@H]1OC(=O)C[C@@H](CCCCCCCCCCC)OC(=O)CCCCCCCCCCCCC (stereo partly drawn) [Compound 86, 2-Deoxy-6-O-{2-deoxy-4-O-phosphono-2-[(3R)-3-tetradecanoyloxytetradecanamido]-3-O-[(3R)-3-tetradecanoyloxytetradecanoyl]-β-D-glucopyranosyl}-3-O-[(3R)-3-hydroxytetradecanoyl]-2-[(3R)-3-tetradecanoyloxytetradecanamido]-α/β-D-glucopyranose]
- T-cell-Proliferation (CPM) ([1]; Table 2, second test group): 52382 CPM
- T-cell-Proliferation (CPM) ([1]; Table 3, third test group): 15486 CPM
- T-cell blastogenesis [1]: significant T-cell blastogenesis
- Interferon-gamma (IFN-γ, pg/ml) ([2]; Table 2, second test group): 36461 pg/mL
- Interferon-gamma (IFN-γ, pg/ml) ([2]; Table 3, third test group): 17697 pg/mL
- interferon-gamma production [2]: high levels of interferon-gamma
- survival of the study ([5]; all three doses (50 μg, 10 μg, 2 μg) i.p., experiment terminated 4 days later): survived the study
- No. Survived/No. Tested (+24 h) ([5]; dose 2/500 μg/μl i.p.): 3/3
- No. Survived/No. Tested (+24 h) ([5]; dose 10/500 μg/μl i.p.): 3/3
- No. Survived/No. Tested (+24 h) ([5]; dose 50/500 μg/μl i.p.): 3/3
- toxicity compared to Natural Lipid-A product from Salmonella ([5]; in words, in vivo, C57-Black mice, Actinomycin D): much less toxic; also recorded: much lower
- adjuvant activity compared to Natural Lipid-A (Lipid-A preparation of bacterial origin) ([6]; liposomal formulations with BP1-148 in mice, FIGS. 31-33): as effective
- activity compared to the other synthetic Lipid-A analogs ([6]; second group (FIG. 32)): slightly more active
